The results in this text go back to ChEMBL document CHEMBL3112534, “A click chemistry approach to pleuromutilin derivatives. Part 3: extended footprinting analysis and excellent MRSA inhibition for a derivative with an adenine phenyl side chain” (2014).

Values after ≈ are worked out from the molar mass of the structure shown. Active and inactive are the calls of the source.

The subject of experiment [1] is Staphylococcus aureus. Nature of the experiment: Antimicrobial activity against methicillin-resistant Staphylococcus aureus USA300 after 20 hrs by two-fold broth dilution assay. It counts as functional. To be noted: USA300, 20 h.
Experiment [2] concerns Escherichia coli. Nature of the experiment: Antimicrobial activity against […] Escherichia coli AS19 after 20 hrs by two-fold broth dilution assay. The following applies: AS19, 20 h. It is filed as functional.
Experiment [3] relates to Staphylococcus aureus. The experiment can be described thus: Antimicrobial activity against […] Staphylococcus aureus RN4220 after 20 hrs by two-fold broth dilution assay. It counts as functional. The following applies: RN4220, 20 h. (Dilution methods test growth across graded concentrations, often in twofold steps.)
In experiment [4] the test system is Escherichia coli. The experiment can be described thus: Binding affinity to Escherichia coli MRE600 23S rRNA assessed as protection of U2506 at 50 uM by footprinting assay relative to control in presence of CMCT.
In experiment [5] the test system is Escherichia coli. Nature of the experiment: Binding affinity to Escherichia coli MRE600 23S rRNA assessed as protection of U2585 at 50 uM by footprinting assay relative to control in presence of CMCT.
Experiment [6] has as its system Escherichia coli. Nature of the experiment: Binding affinity to Escherichia coli MRE600 23S rRNA assessed as protection of U2506 at 5 uM by footprinting assay relative to control in presence of CMCT.
Experiment [7] deals with Escherichia coli. Nature of the experiment: Binding affinity to Escherichia coli MRE600 23S rRNA assessed as protection of U2585 at 5 uM by footprinting assay relative to control in presence of CMCT.
The test system of experiment [8] is Escherichia coli. The experiment can be described thus: Binding affinity to Escherichia coli MRE600 23S rRNA assessed as protection of A2059 at 25 uM by footprinting assay relative to control in presence of DMS.
Experiment [9] relates to Escherichia coli. Nature of the experiment: Binding affinity to Escherichia coli MRE600 23S rRNA assessed as protection of A2062 at 25 uM by footprinting assay relative to control in presence of DMS.

Turning to `C=C[C@]1(C)C[C@@H](OC(=O)CSCCN(CC)CC)[C@]2(C)[C@H](C)CC[C@]3(CCC(=O)[C@H]32)[C@@H](C)[C@@H]1O` [TIAMULIN], the values for the MIC in experiment [1], in experiment [2] and in [3] were 1 µg/mL (≈ 2.03 µM), 0.25 µg/mL (≈ 0.506 µM) and 0.5 µg/mL (≈ 1.01 µM), respectively. The Activity in [4] is 3%; in experiment [5], 40%; in experiment [6], 5%; in experiment [7], 41%.
`C=C[C@]1(C)C[C@@H](OC(=O)Cn2cc(COCCn3cnc4c(N)ncnc43)nn2)[C@]2(C)[C@H](C)CC[C@]3(CCC(=O)[C@H]32)[C@@H](C)[C@@H]1O`: the MIC in experiment [1], in experiment [2] and in experiment [3] was over 4 µg/mL each time. Moreover, the Activity in experiment [4] turned out to be 4%; in [5], 14%; in experiment [6], 9%; in [7] it was 27%.
In the case of `C=C[C@]1(C)C[C@@H](OC(=O)Cn2cc(CN(CC)CC)nn2)[C@]2(C)[C@H](C)CC[C@]3(CCC(=O)[C@H]32)[C@@H](C)[C@@H]1O`, the MIC (commonly the smallest concentration in the dilution series that meets the test's criterion for growth inhibition) in [1] was over 4 µg/mL; in experiment [2], at least 4 µg/mL; in experiment [3], over 4 µg/mL. Also, the Activity in experiment [4] came to 8%; in experiment [5], 28%; in experiment [6], 27%; in [7], 51%.
As to `C=C[C@]1(C)C[C@@H](OC(=O)Cn2cc(CCCn3cnc4c(N)ncnc43)nn2)[C@]2(C)[C@H](C)CC[C@]3(CCC(=O)[C@H]32)[C@@H](C)[C@@H]1O`, the MIC in experiment [1], in [2] and in experiment [3] was 2 µg/mL (≈ 3.31 µM) in each case.
In the case of `C=C[C@]1(C)C[C@@H](OC(=O)CO)[C@]2(C)[C@H](C)CC[C@]3(CCC(=O)[C@@H]32)[C@@H](C)[C@@H]1O`, the Activity in experiment [4] was found to be 5%; in experiment [5], 59%; in experiment [6], 15%; in experiment [7], 73%.
For `C=C[C@]1(C)C[C@@H](OC(=O)Cn2cc(/C=C/Cn3cnc4c(N)ncnc43)nn2)[C@]2(C)[C@H](C)CC[C@]3(CCC(=O)[C@H]32)[C@@H](C)[C@@H]1O`, the MIC is 1 µg/mL (≈ 1.66 µM) in experiment [1], 2 µg/mL (≈ 3.32 µM) in experiment [2] and 1 µg/mL (≈ 1.66 µM) in experiment [3].
For `C=C[C@]1(C)C[C@@H](OC(=O)Cn2nncc2CCCn2cnc3c(N)ncnc32)[C@]2(C)[C@H](C)CC[C@]3(CCC(=O)[C@H]32)[C@@H](C)[C@@H]1O`, the MIC was over 4 µg/mL in experiment [1], 4 µg/mL (≈ 6.61 µM) in [2] and 4 µg/mL (≈ 6.61 µM) in experiment [3]. In addition, in [8], the result was inactive.
In the case of `C=C[C@]1(C)C[C@@H](OC(=O)CSC(C)(C)CNC(=O)[C@H](N)C(C)C)[C@]2(C)[C@H](C)CC[C@]3(CCC(=O)[C@H]32)[C@@H](C)[C@@H]1O` [VALNEMULIN], the MIC in experiment [1] turned out to be 0.06 µg/mL (≈ 0.106 µM); in experiment [2], 0.03 µg/mL (≈ 0.0531 µM); in experiment [3], 0.03 µg/mL (≈ 0.0531 µM). The Activity was determined as 2% in experiment [4], 12% in [5], 2% in experiment [6] and 10% in experiment [7].
With `C=C[C@]1(C)C[C@@H](OC(=O)Cn2cc(-c3cccc(-n4cnc5c(N)ncnc54)c3)nn2)[C@]2(C)[C@H](C)CC[C@]3(CCC(=O)[C@H]32)[C@@H](C)[C@@H]1O`, the MIC in [1] was found to be 0.06 µg/mL (≈ 0.0939 µM); in experiment [2], 0.5 µg/mL (≈ 0.783 µM); in experiment [3] it was 0.06 µg/mL (≈ 0.0939 µM).
Turning to `C=C[C@]1(C)C[C@@H](OC(=O)Cn2cc(-c3ccc(-n4cnc5c(N)ncnc54)cc3)nn2)[C@]2(C)[C@H](C)CC[C@]3(CCC(=O)[C@H]32)[C@@H](C)[C@@H]1O`, the MIC in experiment [1] was 0.5 µg/mL (≈ 0.783 µM); in experiment [2], 4 µg/mL (≈ 6.26 µM); in experiment [3], 0.5 µg/mL (≈ 0.783 µM). In addition, the outcome in [9] and in experiment [8] was inactive.
